Publication PMC9652372, “Glycolytic flux control by drugging phosphoglycolate phosphatase” (Nature Communications, 2022)
Converted amounts (≈) assume the structure as drawn. “And” between values parts separate entries of the source, which are not always exact repeats. Equal entries are not always repeated.

Experiments:
murine PDXP/PGP hybrid = target: T1, murine PDXP/PGP hybrid (Mus musculus, UniProt P60487+Q8CHP8); assay: PG dephosphorylation by PDXP/PGP hybrid protein; assay type: biochemical
T1 construct: consisting of the PGP cap domain (amino acids 114–233) fused to the PDXP core domain; His6 (N, cleaved yes); made in house; host or cells: Escherichia coli BL21 (DE3), pETM11
T1 sequence (P60487 1-100): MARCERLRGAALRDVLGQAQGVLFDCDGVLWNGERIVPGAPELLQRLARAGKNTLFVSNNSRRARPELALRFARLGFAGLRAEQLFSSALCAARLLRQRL
T1 sequence (Q8CHP8 114-233): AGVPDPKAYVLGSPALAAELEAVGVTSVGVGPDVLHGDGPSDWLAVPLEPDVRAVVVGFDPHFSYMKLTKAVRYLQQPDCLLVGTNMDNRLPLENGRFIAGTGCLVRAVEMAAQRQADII
T1 sequence (P60487 208-292): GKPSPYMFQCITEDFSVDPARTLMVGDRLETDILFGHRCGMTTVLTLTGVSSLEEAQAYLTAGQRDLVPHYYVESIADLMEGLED

PGP^WT = target: T2, PGP^WT (Mus musculus, UniProt Q8CHP8); assay: Differential scanning fluorimetry (Thermofluor); assay type: binding
T2 construct: His6 (N, cleaved yes); made in house; host or cells: Escherichia coli BL21 (DE3), pETM11, co-expressed with groES-groEL-tig
T2 sequence (Q8CHP8 1-321): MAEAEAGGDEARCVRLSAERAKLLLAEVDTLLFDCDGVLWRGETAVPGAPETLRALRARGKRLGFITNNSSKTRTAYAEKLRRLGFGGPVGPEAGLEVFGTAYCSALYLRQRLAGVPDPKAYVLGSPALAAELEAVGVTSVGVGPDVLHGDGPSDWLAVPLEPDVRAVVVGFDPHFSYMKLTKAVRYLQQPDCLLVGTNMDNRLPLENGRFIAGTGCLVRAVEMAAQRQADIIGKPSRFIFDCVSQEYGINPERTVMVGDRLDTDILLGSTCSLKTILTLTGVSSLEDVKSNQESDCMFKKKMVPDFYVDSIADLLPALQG

physchem = conditions: organic solvent or mixture
murine PGP [1] = target: T3, murine PGP (Mus musculus, UniProt Q8CHP8); assay: biochemical
T3 sequence (Q8CHP8 1-321): T2 sequence (Q8CHP8 1-321)

murine PDXP = target: T4, murine PDXP (Mus musculus, UniProt P60487); assay: PDXP activity towards pyridoxal 5'-phosphate (PLP); conditions: phosphatase PDXP; species M.m.; substrate PLP; n.s. = no significant inhibition detectable
T4 sequence (P60487 1-292): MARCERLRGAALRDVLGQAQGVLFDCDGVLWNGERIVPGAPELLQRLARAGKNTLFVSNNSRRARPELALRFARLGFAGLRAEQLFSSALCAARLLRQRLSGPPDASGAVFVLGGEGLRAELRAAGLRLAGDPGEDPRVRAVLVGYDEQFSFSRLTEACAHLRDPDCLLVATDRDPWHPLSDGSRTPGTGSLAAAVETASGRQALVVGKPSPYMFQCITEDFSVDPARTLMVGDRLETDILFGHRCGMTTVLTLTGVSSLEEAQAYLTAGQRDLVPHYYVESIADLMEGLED

murine PGP [2] = target: T3, murine PGP; assay: IC50 determination, murine PGP, pNPP dephosphorylation
PGP = target: T5, PGP (Mus musculus, UniProt Q8CHP8); assay: Steady state kinetics of PG dephosphorylation in presence of CP1-3
T5 sequence (Q8CHP8 1-321): T2 sequence (Q8CHP8 1-321)

[3] = PG dephosphorylation, increasing CP concentrations

remaining activity at 16 µM (murine PDXP/PGP hybrid; activity, control = 100, CP log[M] -4.79588): 1.8%
remaining activity at 4 µM (murine PDXP/PGP hybrid; activity, control = 100, CP log[M] -5.39794): 13.3%
remaining activity at 1 µM (murine PDXP/PGP hybrid; activity, control = 100, CP log[M] -6): 41.6%
remaining activity at 0.5 µM (murine PDXP/PGP hybrid; activity, control = 100, CP log[M] -6.30103): 58.4%
remaining activity at […] (murine PDXP/PGP hybrid; activity, control = 100, CP log[M] -6.60206): 73.5%
remaining activity at 0.125 µM (murine PDXP/PGP hybrid; activity, control = 100, CP log[M] -6.90309): 84.1%
remaining activity at 0.0625 µM (murine PDXP/PGP hybrid; activity, control = 100, CP log[M] -7.20412): 89.4%
remaining activity at 0.015625 µM (murine PDXP/PGP hybrid; activity, control = 100, CP log[M] -7.80618): 103%
IC50 (murine PDXP/PGP hybrid; phosphatase PDXP/PGP, species M.m., substrate PG): 970 ± 20 nM
TM (PGP^WT; Inhibitor 0.244141 µM): 66.6 °C
TM (PGP^WT; Inhibitor 0.488281 µM): 66.7 °C
TM (PGP^WT; Inhibitor 0.976562 µM): 67.0 °C
TM (PGP^WT; Inhibitor 1.95312 µM): 67.3 °C
TM (PGP^WT; Inhibitor 3.90625 µM): 68.1 °C
TM (PGP^WT; Inhibitor 7.8125 µM): 69.0 °C
TM (PGP^WT; Inhibitor 15.625 µM): 70.4 °C
TM (PGP^WT; Inhibitor 31.25 µM): 71.2 °C
TM (PGP^WT; Inhibitor 62.5 µM): 72.1 °C
TM (PGP^WT; Inhibitor 125 µM): 72.8 °C
TM (PGP^WT; Inhibitor 250 µM): 73.4 °C
solubility (physchem): 50 mM (≈ 19.7 mg/mL)
IC50 (murine PGP [1]): 810 nM and 1000 nM
IC50 (murine PDXP): n.s.
IC50 (murine PGP [2]): 13500 ± 2510 nM
remaining activity at 10 µM (murine PGP [2]; read-out: M.m PGP on pNPP, activity, control = 100.00, CP log[M] -5): 45.5%
remaining activity at 5 µM (murine PGP [2]; read-out: M.m PGP on pNPP, activity, control = 100.00, CP log[M] -5.30103): 61.5%
remaining activity at […] (murine PGP [2]; read-out: M.m PGP on pNPP, activity, control = 100.00, CP log[M] -5.60206): 74.3%
remaining activity at 80 µM (murine PGP [2]; read-out: M.m PGP on pNPP, activity, control = 100.00, Log CP3 [M] -4.09691): 12.6%
remaining activity at 40 µM (murine PGP [2]; read-out: M.m PGP on pNPP, activity, control = 100.00, Log CP3 [M] -4.39794): 20.3%
remaining activity at 20 µM (murine PGP [2]; read-out: M.m PGP on pNPP, activity, control = 100.00, Log CP3 [M] -4.69897): 33.2%
remaining activity at 1.25 µM (murine PGP [2]; read-out: M.m PGP on pNPP, activity, control = 100.00, Log CP3 [M] -5.90309): 85.2%
remaining activity at 0.625 µM (murine PGP [2]; read-out: M.m PGP on pNPP, activity, control = 100.00, Log CP3 [M] -6.20412): 88.3%
remaining activity at 0.3125 µM (murine PGP [2]; read-out: M.m PGP on pNPP, activity, control = 100.00, Log CP3 [M] -6.50515): 93.8%
remaining activity at 0.15625 µM (murine PGP [2]; read-out: M.m PGP on pNPP, activity, control = 100.00, Log CP3 [M] -6.80618): 98.4%
remaining activity at 0.078125 µM (murine PGP [2]; read-out: M.m PGP on pNPP, activity, control = 100.00, Log CP3 [M] -7.10721): 101%
mode of PGP inhibition (PGP): competitive inhibitors
vmax (PGP; CP 1.0 µM): 50.8 ± 4.1 µmol/min/mg
vmax (PGP; CP 2.0 µM): 54.7 ± 4.9 µmol/min/mg
vmax (PGP; CP 4.0 µM): 54.3 ± 11.9 µmol/min/mg
effect on vmax (reduction) (PGP; [3]): without affecting vmax
increase of KM (PGP; [3]): ~ 3 fold
SMILES: O=C(O)c1cc(Nc2ccccc2C(=O)O)nc(Nc2ccccc2C(=O)O)n1 [CP3]
PGP activity (PGP; 1 µM CP3, PG 50 µM): 2.463 µmol Pi/min/mg and 2.403 µmol Pi/min/mg and 1.502 µmol Pi/min/mg
PGP activity (PGP; 1 µM CP3, PG 100 µM): 5.226 µmol Pi/min/mg and 4.205 µmol Pi/min/mg
PGP activity (PGP; 1 µM CP3, PG 200 µM): 10.3316 µmol Pi/min/mg and 9.671 µmol Pi/min/mg and 8.89 µmol Pi/min/mg
PGP activity (PGP; 1 µM CP3, PG 300 µM): 14.7802 µmol Pi/min/mg and 14.2395 µmol Pi/min/mg and 12.9778 µmol Pi/min/mg
PGP activity (PGP; 1 µM CP3, PG 400 µM): 17.1234 µmol Pi/min/mg and 17.6642 µmol Pi/min/mg and 16.5827 µmol Pi/min/mg
PGP activity (PGP; 1 µM CP3, PG 500 µM): 20.9086 µmol Pi/min/mg and 20.1877 µmol Pi/min/mg and 22.1704 µmol Pi/min/mg
PGP activity (PGP; 1 µM CP3, PG 600 µM): 22.1704 µmol Pi/min/mg and 21.0889 µmol Pi/min/mg and 23.7926 µmol Pi/min/mg
PGP activity (PGP; 1 µM CP3, PG 700 µM): 23.4321 µmol Pi/min/mg and 22.7111 µmol Pi/min/mg and 25.4148 µmol Pi/min/mg
PGP activity (PGP; 1 µM CP3, PG 800 µM): 25.7753 µmol Pi/min/mg and 22.1704 µmol Pi/min/mg and 24.3333 µmol Pi/min/mg
PGP activity (PGP; 2 µM CP3, PG 100 µM): 4.445 µmol Pi/min/mg and 3.364 µmol Pi/min/mg and 4.265 µmol Pi/min/mg
PGP activity (PGP; 2 µM CP3, PG 200 µM): 8.469 µmol Pi/min/mg and 7.448 µmol Pi/min/mg
PGP activity (PGP; 2 µM CP3, PG 300 µM): 12.437 µmol Pi/min/mg and 10.4543 µmol Pi/min/mg and 11.8963 µmol Pi/min/mg
PGP activity (PGP; 2 µM CP3, PG 400 µM): 15.6815 µmol Pi/min/mg and 12.7975 µmol Pi/min/mg and 14.7802 µmol Pi/min/mg
PGP activity (PGP; 2 µM CP3, PG 500 µM): 18.7457 µmol Pi/min/mg and 18.5654 µmol Pi/min/mg and 18.3852 µmol Pi/min/mg
PGP activity (PGP; 2 µM CP3, PG 600 µM): 19.6469 µmol Pi/min/mg and 20.7284 µmol Pi/min/mg
PGP activity (PGP; 2 µM CP3, PG 700 µM): 20.9086 µmol Pi/min/mg and 21.8099 µmol Pi/min/mg and 21.0889 µmol Pi/min/mg
PGP activity (PGP; 2 µM CP3, PG 800 µM): 21.4494 µmol Pi/min/mg and 22.3506 µmol Pi/min/mg and 22.7111 µmol Pi/min/mg
PGP activity (PGP; 4 µM CP3, PG 100 µM): 3.4839 µmol Pi/min/mg and 2.463 µmol Pi/min/mg and 3.424 µmol Pi/min/mg
PGP activity (PGP; 4 µM CP3, PG 200 µM): 6.547 µmol Pi/min/mg and 5.706 µmol Pi/min/mg and 6.728 µmol Pi/min/mg
PGP activity (PGP; 4 µM CP3, PG 300 µM): 9.553 µmol Pi/min/mg and 7.39 µmol Pi/min/mg and 12.7975 µmol Pi/min/mg
PGP activity (PGP; 4 µM CP3, PG 400 µM): 12.437 µmol Pi/min/mg and 10.4543 µmol Pi/min/mg and 15.321 µmol Pi/min/mg
PGP activity (PGP; 4 µM CP3, PG 500 µM): 15.6815 µmol Pi/min/mg and 15.5012 µmol Pi/min/mg and 17.484 µmol Pi/min/mg
PGP activity (PGP; 4 µM CP3, PG 600 µM): 16.763 µmol Pi/min/mg and 19.1062 µmol Pi/min/mg
PGP activity (PGP; 4 µM CP3, PG 700 µM): 16.763 µmol Pi/min/mg and 18.0247 µmol Pi/min/mg and 21.8099 µmol Pi/min/mg
PGP activity (PGP; 4 µM CP3, PG 800 µM): 17.3037 µmol Pi/min/mg and 18.2049 µmol Pi/min/mg and 22.5309 µmol Pi/min/mg
